In publication PMC12001207 (The FEBS journal, 2025):

Legend:
Format in all cases: cell-based
[1] = biological target: T1, succinate receptor 1 (SUCNR1) (Homo sapiens, UniProt Q9BXA5); test: cAMP inhibition assay; also DMR, IP1, Ca2+, arrestin-3 and miniG BRET
T1 sequence (Q9BXA5 1-334): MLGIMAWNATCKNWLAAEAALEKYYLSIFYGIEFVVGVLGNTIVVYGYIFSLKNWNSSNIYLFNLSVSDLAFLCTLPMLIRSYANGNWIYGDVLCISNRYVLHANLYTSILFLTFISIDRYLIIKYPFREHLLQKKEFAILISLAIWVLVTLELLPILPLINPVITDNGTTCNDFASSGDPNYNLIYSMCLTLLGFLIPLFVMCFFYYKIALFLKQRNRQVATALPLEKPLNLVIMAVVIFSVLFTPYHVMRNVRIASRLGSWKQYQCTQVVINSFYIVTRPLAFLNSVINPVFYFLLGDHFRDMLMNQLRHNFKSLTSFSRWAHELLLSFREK

[2] = biological target: T1, succinate receptor 1 (SUCNR1); test: antagonism at […] of agonist-induced IP1, Ca2+, cAMP inhibition, DMR and miniG BRET
[3] = biological target: T1, succinate receptor 1 (SUCNR1); test: dynamic mass redistribution, concentration-response

| SMILES | dynamic mass redistribution, concentration-response [3] | other results |
| --- | --- | --- |
| O=C(O)[C@H]1O[C@H]1C(=O)O [CES, cis-epoxysuccinate] | – | EC50 [1]: ~111 nM |
| CN1CCN(Cc2ccc(-c3cccc(C(=O)Nc4ccccc4CC(=O)O)c3)cc2)CC1 [NF56-EJ40, 2-(2-(4′-((4-methylpiperazin-1-yl)methyl)-[1,1′-biphenyl]-3-carboxamido)phenyl)acetic acid] | – | antagonism at 100 nM of agonist-induced IP1, Ca2+, cAMP inhibition, DMR and mini [2]: NF56-EJ40 also completely inhibited the agonist-induced SUCNR1-mediated IP1 formation and caused a significant shift of the cAMP inhibition curve |
| O=C(O)CCC(=O)O [SUC, succinate] | – | EC50 [1]: ~644 nM |
| C=C(CC(=O)O)C(=O)O [itaconate] | Metabolite SUCNR1 agonists (malate, oxaloacetate, methylmalonate, itaconate, malonate) showed concentration-dependent responses upon SUCNR1 stimulation | – |
| O=C(O)CC(O)C(=O)O (centres unmarked) [malate] | Metabolite SUCNR1 agonists (malate, oxaloacetate, methylmalonate, itaconate, malonate) showed concentration-dependent responses upon SUCNR1 stimulation | – |
| O=C(O)CC(=O)O [malonate] | Metabolite SUCNR1 agonists (malate, oxaloacetate, methylmalonate, itaconate, malonate) showed concentration-dependent responses upon SUCNR1 stimulation | – |
| CC(C(=O)O)C(=O)O [methylmalonate] | Metabolite SUCNR1 agonists (malate, oxaloacetate, methylmalonate, itaconate, malonate) showed concentration-dependent responses upon SUCNR1 stimulation | – |
| O=C(O)CC(=O)C(=O)O [oxaloacetate] | Metabolite SUCNR1 agonists (malate, oxaloacetate, methylmalonate, itaconate, malonate) showed concentration-dependent responses upon SUCNR1 stimulation | – |
